Data on one compound can be found in paper PMC5559489 (Scientific Reports, 2017).

Assay [1] deals with seasonal influenza A(H3N2) virus neuraminidase (NA) (Influenza A virus, UniProt V9SU56). The format is biochemical.
Assay [2] concerns the target seasonal influenza B virus neuraminidase (NA) (Influenza B virus, UniProt C0LT34). The format is biochemical.

`CCOC(=O)C1=C[C@@H](OC(CC)CC)[C@H](NC(C)=O)[C@@H](N)C1` [oseltamivir, Oseltamivir]: the “susceptibility to oseltamivir (WHO definition)” value in assay [1] and in assay [2] was “sensitive” throughout.
